Source: patent US20150039274A1, “SYSTEM AND METHOD FOR PERSONALIZED METABOLIC MODELING” (Ramot at Tel-Aviv University Ltd., priority 2013, published 2015)

System: RPMI-8226 cells
Experiment: Cell proliferation of RPMI-8226 cells with doxycycline-inducible MLYCD shRNA, with or without N-acetyl-cysteine
Assay type: cell-based, human
Settings: RPMI-8226 shRNA cells; 2 mM N-Acetyl Cysteine
Procedure: HapMap cells (GM06997, CEPH/UTAH pedigree 13291) were obtained from Coriell Institute and RPMI-8226 and K562 cells were obtained from NCI-Frederick Cancer DCTD Tumor/Cell line Repository. Cells were grown in RPMI 1640 plus 10% fetal bovine serum (FBS) in the presence of 5% carbon dioxide. Cell count was determined using a CASY Cell Counter (Roche Applied Science). Where indicated, cells were incubated with 2 mM N-acetyl-cysteine.
The viral supernatant for infection was obtained from the filtered growth media of the packaging cells HEK293T transfected with 3 μg psPAX, 1 μg pVSVG, 4 μg of shRNA contructs and 24 μl Lipofectamine 2000 (Life Technology) and the relevant shRNAs. 5×10^5 cells were then plated on 6-well plates and infected with the viral supernatant in the presence of 4 μg/mL polybrene. After two days, the medium was replaced with selection medium containing 2 μg/mL puromycin.
The expression of the shRNA constructs was induced by incubating cells with 2 μg/mL Doxycyclin.

CC(=O)N[C@@H](CS)C(=O)O [N-Acetyl-cysteine]
cell proliferation of MLYCD-deficient cells in the presence of antioxidant: restored the proliferative defects
